Literature values, collected in US20090306103A1, “PYRIDONECARBOXAMIDE DERIVATIVES USEFUL IN TREATING HYPER-PROLIFERATIVE AND ANGIOGENESIS DISORDERS” (priority 2006, published 2009).

What was measured:
[1] = tested on: Bcr-Abl Imanitib resistant mutations
Bcr-Abl E255K mutant = conditions: read-out: IC50 against E255K mutant; biochemical assay
Bcr-Abl = conditions: greater potency than Imatinib

IC50 (Bcr-Abl E255K mutant): 400 nM
potency of Bcr-Abl kinase inhibition relative to Imatinib (Bcr-Abl): 20 fold
SMILES: Cc1cn(-c2cc(NC(=O)c3ccc(C)c(Nc4nccc(-c5cccnc5)n4)c3)cc(C(F)(F)F)c2)cn1 [AMN-107]
inhibition of Imanitib resistant mutations [1]: inhib most Imanitib resistant mutations except for T315I
